This note sets out measurements from publication PMC6273687, “Design, Synthesis and Biological Evaluation of Novel Primaquine-Cinnamic Acid Conjugates of the Amide and Acylsemicarbazide Type” (Molecules, 2016).

Some results are limits rather than exact numbers.

One may read the inhibition as the percentage by which the read-out fell short of the control. Low readings indicate little suppression, high ones strong suppression. In general, IC50 refers to the concentration that inhibits the measured activity by half. Higher therefore signals a need for much substance.

Assay [1] deals with T1, soybean lipoxygenase (LOX) (Glycine max, UniProt P08170).
T1 construct: purchased Sigma-Aldrich
T1 sequence (P08170 1-839): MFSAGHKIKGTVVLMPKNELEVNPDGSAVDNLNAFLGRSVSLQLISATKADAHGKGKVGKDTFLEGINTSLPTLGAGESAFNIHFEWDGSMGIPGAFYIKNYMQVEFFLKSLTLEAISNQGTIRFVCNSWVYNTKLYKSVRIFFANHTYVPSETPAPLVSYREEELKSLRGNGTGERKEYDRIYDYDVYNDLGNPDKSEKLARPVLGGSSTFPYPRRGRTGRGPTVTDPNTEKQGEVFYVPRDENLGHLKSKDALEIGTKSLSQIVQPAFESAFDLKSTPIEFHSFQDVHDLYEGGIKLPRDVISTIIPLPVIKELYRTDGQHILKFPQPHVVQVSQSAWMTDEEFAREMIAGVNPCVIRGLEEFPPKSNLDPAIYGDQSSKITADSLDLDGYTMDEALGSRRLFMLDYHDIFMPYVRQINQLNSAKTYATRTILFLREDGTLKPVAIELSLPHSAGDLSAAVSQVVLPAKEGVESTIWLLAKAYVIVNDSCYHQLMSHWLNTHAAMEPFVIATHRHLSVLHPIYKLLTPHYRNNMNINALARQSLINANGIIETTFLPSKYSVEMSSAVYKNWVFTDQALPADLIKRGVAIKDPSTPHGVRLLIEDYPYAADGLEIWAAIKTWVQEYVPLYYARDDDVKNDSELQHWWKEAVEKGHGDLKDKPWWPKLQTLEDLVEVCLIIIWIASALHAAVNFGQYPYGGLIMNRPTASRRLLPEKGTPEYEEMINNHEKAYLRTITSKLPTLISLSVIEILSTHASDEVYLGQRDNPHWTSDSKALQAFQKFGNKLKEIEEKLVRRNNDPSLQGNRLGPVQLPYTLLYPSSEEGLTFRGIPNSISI
As to the kind of experiment: LOX inhibition study in vitro. Format: biochemical. As to conditions: 1 × 10^−4 M. The protocol:
LOX inhibitory assay in vitro was accomplished as described previously. The test compounds (stock solutions 10 mM in DMSO) were incubated at room temperature with sodium linoleate (c = 0.1 mM) and 0.2 mL of LOX enzyme solution (1/9 × 10^−4 m/V in saline). The conversion of sodium linoleate to 13-hydroperoxylinoleic acid was measured at 234 nm and compared with the reference inhibitor. Several concentrations were used for the IC50 determination.

The subject of assay [2] is SW 620 colon carcinoma cell line. As to the kind of experiment: Growth inhibition of tumor cell lines in vitro (MTT / cell counting). Format: cell-based. As to conditions: Homo sapiens, 72 h; SW 620, 3 days. The protocol:
(§1) The experiments were carried out on a murine lymphocytic leukemia cell line (L1210) and five human tumor cell lines: CEM, HeLa, NCI-H460, SW 620 and MCF-7. The cells were cultured as monolayers and maintained in Dulbecco′s modified Eagle medium (DMEM) supplemented with 10% fetal bovine serum (FBS), 2 mM L-glutamine, 100 U/mL penicillin and 100 μg/mL streptomycin in a humidified atmosphere with 5% CO2 at 37 °C.
(§2) The growth inhibition activity of the compounds was assessed as described previously. The cell lines were inoculated onto a series of standard 96-well microtiter plates on day 0, at 1.5 × 10^4 cells/mL (SW 620, H460) to 2.5 × 10^4 cells/mL (MCF-7, CEM and L1210), depending on the growth of the tumor cell line. Test agents were then added in ten-fold dilutions (10^−8 to 10^−4 M) and the cell cultures were then incubated for 3–4 days with 5% CO2 at 37 °C. Working dilutions of the compounds were freshly prepared on the day of testing.
(§3) After 3 (MCF-7, SW 620, NCI-H460) or 4 days (CEM, L1210), the cell growth rate was evaluated first light microscopically, then by viable cell counting and/or by performing the MTT assay, which detects dehydrogenase activity in live, not dead, cells. The absorbance (A) was measured on a microplate reader at 570 nm. The absorbance is directly proportional to the number of living, metabolically active cells. […] If however, all of the tested concentrations produce PGs exceeding the respective reference level of effect (e.g., PG value of 50), then the highest tested concentration is assigned as the default value, which is preceded by a “>” sign. Minimum two individual experiments were carried out and each test point was performed in quadruplicate.

Assay [3] relates to CEM acute lymphoblastic leukemia cell line. The description is as above. Format: cell-based. As to conditions: Homo sapiens, 96 h, 4 days. On the procedure: as §1, §2, §3
The subject of assay [4] is L1210 murine lymphocytic leukemia cell line. Described as above. Format: cell-based. As to conditions: Mus musculus, 96 h; L1210, 4 days. The protocol: as §1, §2, §3
Assay [5] deals with HeLa cervical carcinoma cell line. The assay is described as above. Format: cell-based. As to conditions: Homo sapiens. On the procedure:
as §1, §2, §3

Assay [6] is described as follows: Interaction with the stable radical DPPH (reducing ability). The protocol:
To a solution of DPPH in absolute ethanol the appropriate volume of the compounds (50 or 100 µM final concentrations) dissolved in DMSO was added. The absorbance was recorded at 517 nm after 20 and 60 min at room temperature. The experiments were repeated at least in triplicate and the standard deviation of absorbance was less than 10% of the mean. NDGA was used under the same experimental conditions as a reference compound.
Background: The DPPH test is a chemical assay of radical scavenging.

Assay [7] relates to MCF-7 breast carcinoma cell line. As to the kind of experiment: Growth inhibition of tumor cell lines in vitro (MTT / cell counting). Format: cell-based, human. As to conditions: Homo sapiens, MCF7, 72 h; MCF-7, 3 days. On the procedure: as §1, §2, §3
In assay [8] the test system is NCI-H460 lung carcinoma cell line. The assay is described as above. Format: cell-based, human. As to conditions: Homo sapiens, 72 h; NCI-H460, 3 days. The protocol: as §1, §2, §3
Assay [9] is described as follows: Inhibition of linoleic acid peroxidation (AAPH-induced). As to conditions: 5 × 10^−5 M. On the procedure:
For initiating the lipid peroxidation free radical AAPH was used. Final solution in the UV cuvette consisted of 10 μL linoleate sodium solution (c = 16 mM), 0.93 mL phosphate buffer (c = 0.05 M), pH 7.4, thermostated at 37 °C. 50 μL AAPH solution (c = 40 mM) and 10 μL of the tested compounds were added. The experiment was performed at 37 °C under air. The oxidation of linoleic acid sodium salt was monitored at 234 nm. The assays were repeated at least in triplicate and the standard deviation of absorbance was less than 10% of the mean. Trolox was used under the same experimental conditions as a reference compound.

`COc1cc(NC(C)CCCNC(=O)/C=C/c2ccccc2)c2ncccc2c1` (stereo not shown) [3a, (E)-N-(4-(6-Methoxyquinolin-8-ylamino)pentyl)-3-phenylacrylamide] registered an inhibition at 100 µM in assay [1] of 19%. Also, the IC50 was 23 ± 9 µM in assay [2]; 27 ± 4 µM in assay [3]; 52 ± 3 µM in [4]; 4 ± 0.9 µM in assay [5]; 24 ± 5 µM in assay [7]; more than 1 µM in assay [8]. The “DPPH-reducing ability RA (%)” value in [6] (1 × 10^−4 M, 20 min) is recorded as 53%; in assay [6] (1 × 10^−4 M, 60 min), 33%; in assay [6] (5 × 10^−5 M, 20 min), 16%; in assay [6] (5 × 10^−5 M, 60 min), 20%. Also, in assay [9], the “LP Inhibition (%)” value amounted to 44%.

Molecule `COc1cc(NC(C)CCCNC(=O)/C(C)=C/c2ccccc2)c2ncccc2c1` (stereo not shown) [3b, (E)-N-(4-(6-Methoxyquinolin-8-ylamino)pentyl)-2-methyl-3-phenylacrylamide] gave an inhibition at 100 µM in [1] of 14%. In addition, the IC50 is more than 100 µM in assay [2]; 55 ± 6 µM in assay [3]; 51 µM in assay [4]; 106 ± 26 µM in assay [5]; 9.4 ± 0.2 µM in [7]; more than 100 µM in assay [8]. Besides, the “DPPH-reducing ability RA (%)” value in assay [6] (1 × 10^−4 M, 20 min) stood at 5%; in assay [6] (1 × 10^−4 M, 60 min), 37%; in [6] (5 × 10^−5 M, 20 min), 2%; in [6] (5 × 10^−5 M, 60 min) it was 2%. For the same molecule, the “LP Inhibition (%)” value in assay [9] is reported as 79%.

`COc1ccc(/C=C/C(=O)NCCCC(C)Nc2cc(OC)cc3cccnc23)cc1` (stereo not shown) [3c, (E)-3-(4-Methoxyphenyl)-N-(4-(6-methoxyquinolin-8-ylamino)pentyl)acrylamide] came in with an inhibition at 100 µM in assay [1] of 45%. The IC50 was more than 100 µM in assay [2]; 61 ± 30 µM in [3]; 106 ± 6 µM in assay [4]; more than 125 µM in [5]; 20 ± 3 µM in [7]; more than 100 µM in assay [8]. In addition, the “DPPH-reducing ability RA (%)” value was found to be 40% in assay [6] (1 × 10^−4 M, 20 min); 43% in [6] (1 × 10^−4 M, 60 min); 22% in [6] (5 × 10^−5 M, 20 min); 27% in [6] (5 × 10^−5 M, 60 min). For the same molecule, the “LP Inhibition (%)” value in assay [9] came to 70%.

Consider `COc1cc(NC(C)CCCNC(=O)/C=C/c2ccc(OC)c(OC)c2)c2ncccc2c1` (stereo not shown) [3d, (E)-3-(3,4-Dimethoxyphenyl)-N-(4-(6-methoxyquinolin-8-ylamino)pentyl)acrylamide], for which the inhibition at 100 µM in assay [1] worked out at 43%. For the same molecule, the IC50 was more than 100 µM in assay [2]; 90 ± 45 µM in assay [3]; 100 ± 34 µM in [4]; more than 125 µM in assay [5]; 16 ± 0.6 µM in assay [7]; more than 100 µM in assay [8]. Moreover, the “DPPH-reducing ability RA (%)” value amounted to 34% in assay [6] (1 × 10^−4 M, 20 min) and 31% in [6] (1 × 10^−4 M, 60 min). Also, in [9], the “LP Inhibition (%)” value is 73%.

In turn, `COc1cc(NC(C)CCCNC(=O)/C=C/c2cc(OC)c(OC)c(OC)c2)c2ncccc2c1` (stereo not shown) [3e, (E)-N-(4-(6-Methoxyquinolin-8-ylamino)pentyl)-3-(3,4,5-trimethoxyphenyl)acrylamide] registered an inhibition at 100 µM in [1] of 26%. Further, the IC50 is more than 100 µM in assay [2]; 55 ± 16 µM in assay [3]; 22 ± 2 µM in assay [4]; more than 125 µM in assay [5]; 8.7 ± 0.3 µM in assay [7]; more than 100 µM in assay [8]. The “DPPH-reducing ability RA (%)” value is 16% in [6] (1 × 10^−4 M, 20 min); 23% in assay [6] (1 × 10^−4 M, 60 min); 4% in [6] (5 × 10^−5 M, 20 min); 9% in assay [6] (5 × 10^−5 M, 60 min). In [9], the “LP Inhibition (%)” value is on record as 47%.

In [1], `COc1cc(NC(C)CCCNC(=O)/C=C/c2ccc3c(c2)OCO3)c2ncccc2c1` (stereo not shown) [3f, (E)-3-(Benzo[d][1,3]dioxo-5-yl)-N-(4-(6-methoxyquinolin-8-ylamino)pentyl)acrylamide] displayed an inhibition at 100 µM of 34%. The IC50 in assay [2] was more than 100 µM; in assay [3] it was 37 ± 27 µM; in assay [4], 59 ± 2 µM; in assay [5], 72 ± 57 µM; in assay [7], 6.9 ± 1.3 µM; in assay [8], more than 100 µM. For the same molecule, the “DPPH-reducing ability RA (%)” value was 11% in assay [6] (1 × 10^−4 M, 20 min) and 33% in [6] (1 × 10^−4 M, 60 min). For the same molecule, in assay [9], the “LP Inhibition (%)” value amounted to 87%.

In turn, `COc1cc(NC(C)CCCNC(=O)/C=C/c2ccc(Cl)cc2)c2ncccc2c1` (stereo not shown) [3g, (E)-3-(4-Chlorophenyl)-N-(4-(6-methoxyquinolin-8-ylamino)pentyl)acrylamide] yielded an inhibition at 100 µM in assay [1] of 17%. The IC50 in assay [2] was more than 100 µM; in assay [3] it was 20 ± 2 µM; in [4], 63 ± 2 µM; in assay [5] it was 36 ± 16 µM; in assay [7], 4.3 ± 1 µM; in [8] it was more than 100 µM. Also, the “DPPH-reducing ability RA (%)” value in assay [6] (1 × 10^−4 M, 20 min) turned out to be 27%; in assay [6] (1 × 10^−4 M, 60 min) it was 46%. For the same molecule, the “LP Inhibition (%)” value in [9] was 46%.

`COc1cc(NC(C)CCCNC(=O)/C=C/c2ccccc2F)c2ncccc2c1` (stereo not shown) [3h, (E)-3-(2-Fluorophenyl)-N-(4-(6-methoxyquinolin-8-ylamino)pentyl)acrylamide] showed an inhibition at 100 µM in assay [1] of 10%. Also, the IC50 in assay [2] was 0.3 ± 0.1 µM; in [3] it was 18 ± 15 µM; in assay [4], 66 ± 5 µM; in [5], 2.1 ± 2.1 µM; in assay [7], 1.1 ± 0.6 µM; in assay [8] it was more than 100 µM. For the same molecule, in [9], the “LP Inhibition (%)” value is on record as 66%.

With `CC(Cc1ccc(O)c(O)c1)C(C)Cc1ccc(O)c(O)c1` (stereo not shown) [NDGA, nordihydroguaiaretic acid, reference compound], the “DPPH-reducing ability RA (%)” value is 89% in assay [6] (1 × 10^−4 M, 20 min); 94% in assay [6] (1 × 10^−4 M, 60 min); 83% in [6] (5 × 10^−5 M, 20 min); 87% in assay [6] (5 × 10^−5 M, 60 min).

With `Cc1c(C)c2c(c(C)c1O)CCC(C)(C(=O)O)O2` (stereo not shown) [Trolox, 6-hydroxy-2,5,7,8-tetramethylchroman-2-carboxylic acid, reference compound], in assay [9], the “LP Inhibition (%)” value came to 88%.
